Measurements published in patent US10675267B2, “Methods for detection and eradication of myeloid leukemia stem cells” (priority 2015, dated 2020).

Tested on: AML-08 human LSC engrafted in NSGS mice
Assay: De novo AML PRIMAGRAFT model AML-08: FACS engraftment analysis and serial transplantation
Format: in vivo, mouse
Procedure: All animal studies were performed in accordance with UCSD and NIH-equivalent ethical guidelines and were approved by the Institutional Animal Care and Use Committee (IACUC protocol # S06015). For all in vivo experiments, animals of both genders were utilized. Three AML PRIMAGRAFT™ models were established by transplanting AML LSC-enriched cell fractions (either CD34-selected or FACS-purified stem or progenitor cell fractions from primary patient samples) into immunocompromised Rag2^−/−γc^−/−[20] or NOD/SCID-IL2RG mice (Jackson Laboratory) constitutively expressing human SCF, GM-CSF and IL-3 (NSGS) (FIGS. 8A-8D). […]
Mice transplanted with 1-2×10^5 CD34^+ AML LSC-enriched fractions or no-transplant controls were screened for human hematopoietic cell engraftment (CD45^+ cells) in peripheral blood by FACS starting at 7-10 weeks post transplant. At 7-28 weeks post-transplant (7-36 weeks old), mice were euthanized, and peripheral blood and single cell suspensions of hematopoietic organs were analyzed for human cell engraftment by FACS. […]
Flow cytometric analysis was performed on single cell suspensions from each hematopoietic tissue essentially as for primary patient samples, and frequencies of total live human CD45^+ cells, and CD45^+CD34^+CD38^− Lin^− (stem) and CD45^+CD34^+CD38^+ Lin^− (progenitor) cells were determined in each tissue. […]

For `CC[C@H](OC)[C@@H](C)[C@H]1O[C@@H]1[C@@H](O)[C@H](C)/C=C/C=C(\C)[C@H]1OC(=O)C[C@H](O)CC[C@@](C)(O)[C@@H](OC(C)=O)/C=C/[C@@H]1C` (stereo in doubt) [Formula 17S-FD-895, 17S-FD-895], the “circulating leukemic cells in secondary recipients” value (de novo AML model, lower dose) was “trend towards decreased circulating leukemic cells” and the “decrease in circulating leukemic burden in secondary recipients” value (model with high disease burden, serial transplantation, p=0.07) was 49%.
